Counter-ions that a name gives are not always drawn.
Target: T1, 5HT6-human recombinant receptor (Homo sapiens, UniProt P50406)
T1 construct: purchased Receptor Biology; host or cells: HEK-293 cell membranes
Assay: Binding to serotonin receptor 5-HT6 ([3H]-LSD radioligand displacement)
Settings: [3H]-LSD 2.7 nM, HEK-293 cell membranes
Method: I) Binding to Serotonin Receptor 5-HT6
Cell membranes of HEK-293 cells expressing the 5HT6-human recombinant receptor were supplied by Receptor Biology. In said membranes the receptor concentration is 2.18 pmol/mg protein and the protein concentration is 9.17 mg/ml. The experimental protocol follows the method of B. L. Roth et al. [B. L. Roth, S. C. Craigo, M. S. Choudhary, A. Uluer, F. J. Monsma, Y. Shen, H. Y. Meltzer, D. R. Sibley: Binding of Typical and Atypical Antipsychotic Agents to 5-Hydroxytryptamine-6 and Hydroxytryptamine-7 Receptors. The Journal of Pharmacology and Experimental Therapeutics, 1994, 268, 1403] with the following slight changes. The respective part of the literature description is hereby incorporated by reference and forms part of the disclosure.
The commercial membrane is diluted (1:40 dilution) with the binding buffer: 50 mM Tris-HCl, 10 mM MgCl2, 0.5 mM EDTA (pH 7.4). The radioligand used is [^3H]-LSD at a concentration of 2.7 nM with a final volume of 200 μl. […] Non-specific binding is determined in the presence of 100 μM of serotonin. […] The inhibition constants (Ki, nM) were calculated by non-linear regression analysis using the program EBDA/LIGAND [Munson and Rodbard, Analytical Biochemistry, 1980, 107, 220]., the respective part of which is hereby incorporated by reference and forms part of the disclosure.

T1 sequence (P50406 whole entry): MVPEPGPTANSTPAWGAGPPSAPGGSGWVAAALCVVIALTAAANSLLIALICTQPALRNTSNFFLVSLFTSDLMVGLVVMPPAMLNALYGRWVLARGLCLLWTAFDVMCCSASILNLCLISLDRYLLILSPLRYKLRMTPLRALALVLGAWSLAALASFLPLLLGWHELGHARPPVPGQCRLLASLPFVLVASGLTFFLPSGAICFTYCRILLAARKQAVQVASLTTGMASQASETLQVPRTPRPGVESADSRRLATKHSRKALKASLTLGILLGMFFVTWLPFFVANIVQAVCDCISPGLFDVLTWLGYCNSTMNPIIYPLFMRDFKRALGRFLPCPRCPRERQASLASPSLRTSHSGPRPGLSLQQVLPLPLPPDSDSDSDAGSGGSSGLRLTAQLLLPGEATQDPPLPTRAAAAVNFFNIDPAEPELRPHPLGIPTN

Ki (tests in triplicate): 31.4 ± 0.8 nM
inhibition at 0.1 µM (compound at 10^−7 M): 85.8%
SMILES: CC1CCc2c(N3CCNCC3)cccc2N1S(=O)(=O)c1cccc2ccccc12 (stereo not drawn) [Compound 3, 1,2,3,4-tetrahydro-2-methyl-5-(piperazin-1-yl)-1-α-naphthylsulfonyl)quinoline trifluoroacetate]

Reference: US20090030013A1, “SUBSTITUTED TETRAHYDRO-QUINOLINE-SULFONAMIDE COMPOUNDS, THEIR PREPARATION AND USE AS MEDICAMENTS” (LABORATORIES DEL DR. ESTEVE, S.A., priority 2007, published 2009)
